Activity calls are given as the source filed them.
Tests used:
Caspase-7 = molecular target: T1, Caspase-7 (Homo sapiens, UniProt P55210); test: caspase-7 enzyme inhibition, selectivity check – biochemical, DEVD-R110 fluorescence, cherry-pick, selectivity assay for caspase-6 inhibitor project, dose response (AID 743295); assay type: functional
T1 sequence (P55210 whole entry): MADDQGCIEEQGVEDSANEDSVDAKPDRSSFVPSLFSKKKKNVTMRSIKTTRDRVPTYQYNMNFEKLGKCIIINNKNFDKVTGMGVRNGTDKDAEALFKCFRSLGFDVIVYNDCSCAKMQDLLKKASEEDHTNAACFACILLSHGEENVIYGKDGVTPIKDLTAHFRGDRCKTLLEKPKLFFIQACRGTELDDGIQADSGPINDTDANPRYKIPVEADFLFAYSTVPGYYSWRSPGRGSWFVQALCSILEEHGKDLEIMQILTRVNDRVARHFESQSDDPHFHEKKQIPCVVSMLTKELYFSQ

Caspase-3 = molecular target: T2, Caspase-3 (Homo sapiens, UniProt P42574); test: human caspase-3 protease activity blockade – biochemical, fluorescence, cherry-picked samples, selectivity assay for caspase-6 allosteric inhibitor project, dose response (AID 743291)
T2 sequence (P42574 whole entry): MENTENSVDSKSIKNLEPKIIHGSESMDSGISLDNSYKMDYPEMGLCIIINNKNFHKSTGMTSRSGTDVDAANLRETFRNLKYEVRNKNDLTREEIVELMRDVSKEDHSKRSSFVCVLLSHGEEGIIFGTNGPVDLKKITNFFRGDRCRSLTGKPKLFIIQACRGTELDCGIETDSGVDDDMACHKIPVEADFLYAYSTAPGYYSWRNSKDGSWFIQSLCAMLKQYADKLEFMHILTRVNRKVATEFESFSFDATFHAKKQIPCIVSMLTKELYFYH

Caspase-6 = molecular target: T3, Caspase-6 (Homo sapiens, UniProt P55212); test: inhibition of CASP6 peptide cleavage – biochemical, VEID-R110 fluorescence, cherry-pick, dose response (AID 720632)
T3 sequence (P55212 whole entry): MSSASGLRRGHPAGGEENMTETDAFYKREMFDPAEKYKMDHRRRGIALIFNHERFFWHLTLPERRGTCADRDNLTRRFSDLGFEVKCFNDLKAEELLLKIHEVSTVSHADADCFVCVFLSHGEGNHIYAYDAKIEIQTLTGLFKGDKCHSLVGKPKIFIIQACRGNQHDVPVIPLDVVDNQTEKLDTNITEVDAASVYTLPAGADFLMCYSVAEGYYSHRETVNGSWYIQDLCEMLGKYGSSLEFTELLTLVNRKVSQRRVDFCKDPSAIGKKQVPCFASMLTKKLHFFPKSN

Phospholipase A2 = Phospholipase A2 (Homo sapiens, UniProt P04054); assay type: functional;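 note: confirmatory dose-response counterscreen on phospholipase A2, testing hits that came from an ultra-high-throughput screen for ATG4B inhibitors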
Sequence of Phospholipase A2 (P04054 whole entry): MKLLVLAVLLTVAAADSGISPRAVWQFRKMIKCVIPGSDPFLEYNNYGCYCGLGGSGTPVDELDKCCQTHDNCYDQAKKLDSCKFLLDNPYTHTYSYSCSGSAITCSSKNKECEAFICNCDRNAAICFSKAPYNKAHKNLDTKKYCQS

INS1 = test: INS-1E survival protection against cytokine death – cell-based, luminescence, retest, dose response (AID 449756); assay type: functional; details: Rattus norvegicus;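 note: cell death triggered by IL-1 beta plus TNF-alpha plus IFN-gamma mixture; protective hits raise ATP signal compared with cytokine alone wells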
[1] = molecular target: T4, Replicative DNA helicase DnaB (Mycobacterium tuberculosis, UniProt P9WMR3); test: DnaB intein splicing inhibitors, dose response, biochemical, cell-free fluorescence (AID 449749); assay type: functional
T4 sequence (P9WMR3 whole entry): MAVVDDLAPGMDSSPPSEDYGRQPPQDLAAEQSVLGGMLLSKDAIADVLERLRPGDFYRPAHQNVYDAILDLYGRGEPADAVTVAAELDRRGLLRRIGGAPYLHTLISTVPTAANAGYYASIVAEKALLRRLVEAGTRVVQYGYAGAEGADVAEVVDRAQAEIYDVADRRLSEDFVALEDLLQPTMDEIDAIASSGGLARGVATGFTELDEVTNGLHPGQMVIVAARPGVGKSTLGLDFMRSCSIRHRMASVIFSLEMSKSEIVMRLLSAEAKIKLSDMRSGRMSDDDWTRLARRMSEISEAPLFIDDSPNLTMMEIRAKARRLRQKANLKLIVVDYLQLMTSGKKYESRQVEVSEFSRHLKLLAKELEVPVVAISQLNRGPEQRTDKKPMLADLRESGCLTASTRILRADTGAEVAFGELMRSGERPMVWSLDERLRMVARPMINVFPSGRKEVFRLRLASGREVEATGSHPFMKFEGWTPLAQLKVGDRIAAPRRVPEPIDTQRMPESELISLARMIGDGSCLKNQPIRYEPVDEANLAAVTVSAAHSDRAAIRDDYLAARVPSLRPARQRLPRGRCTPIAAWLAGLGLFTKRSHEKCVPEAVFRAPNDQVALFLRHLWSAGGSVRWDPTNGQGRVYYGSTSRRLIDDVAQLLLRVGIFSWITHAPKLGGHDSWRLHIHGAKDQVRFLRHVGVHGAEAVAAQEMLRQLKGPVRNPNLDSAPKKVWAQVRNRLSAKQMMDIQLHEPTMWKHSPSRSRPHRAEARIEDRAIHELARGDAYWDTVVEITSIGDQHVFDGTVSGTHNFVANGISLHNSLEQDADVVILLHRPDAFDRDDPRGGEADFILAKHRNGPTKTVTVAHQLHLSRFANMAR

Protein RecA = molecular target: T5, Protein RecA (Mycobacterium tuberculosis, UniProt P9WHJ3); test: Fluorescence Cell-Free Homogeneous Dose Retest to Identify Inhibitors of RecA-Intein Splicing Activity. [Related pubchem assays (depositor defined):AID2097, AID2223, AID489010, AID492950]; assay type: functional
T5 sequence (P9WHJ3 whole entry): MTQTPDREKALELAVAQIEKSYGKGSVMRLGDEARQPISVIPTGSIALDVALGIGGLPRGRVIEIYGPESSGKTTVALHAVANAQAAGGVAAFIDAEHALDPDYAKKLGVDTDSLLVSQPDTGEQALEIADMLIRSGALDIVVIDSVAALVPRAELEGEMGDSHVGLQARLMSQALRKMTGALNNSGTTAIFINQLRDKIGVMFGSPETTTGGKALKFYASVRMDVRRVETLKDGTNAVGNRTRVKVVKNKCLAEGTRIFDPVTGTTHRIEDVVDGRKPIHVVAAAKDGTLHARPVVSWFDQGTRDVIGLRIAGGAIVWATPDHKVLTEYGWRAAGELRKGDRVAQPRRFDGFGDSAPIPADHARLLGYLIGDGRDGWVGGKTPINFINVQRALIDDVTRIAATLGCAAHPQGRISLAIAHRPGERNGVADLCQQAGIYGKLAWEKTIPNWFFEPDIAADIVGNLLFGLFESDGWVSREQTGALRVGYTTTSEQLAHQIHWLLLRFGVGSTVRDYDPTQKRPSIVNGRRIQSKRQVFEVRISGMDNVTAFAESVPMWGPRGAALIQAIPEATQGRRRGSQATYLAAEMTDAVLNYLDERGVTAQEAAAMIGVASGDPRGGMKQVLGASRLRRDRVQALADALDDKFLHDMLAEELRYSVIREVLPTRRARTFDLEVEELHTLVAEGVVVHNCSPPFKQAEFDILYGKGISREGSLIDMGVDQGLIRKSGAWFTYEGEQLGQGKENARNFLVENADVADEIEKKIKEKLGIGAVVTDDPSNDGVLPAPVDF

SMILES: COc1ccc(NS(=O)(=O)c2ccc3c(c2)[C@H]2C=CC[C@H]2[C@@H](c2ccc(C(=O)O)cc2)N3)cc1
- AC50 (Caspase-7): > 70000 nM (inactive)
- AC50 (Caspase-3): 18200 nM (active)
- AC50 (Caspase-6): 4430 nM (active)
- IC50 (Phospholipase A2): 6870 nM (active)

SMILES: CCC(=O)NC(c1ccc(OC)cc1)c1cc(Cl)c2cccnc2c1O (centres undefined)
- AC50 (INS1): 1080 nM (active)

SMILES: Cn1nc(-c2ccccn2)nc2c(=O)n(C)c(=O)nc1-2
- AC50 [1]: 573 nM (active)
- AC50 (Caspase-7): 371 nM (active)
- AC50 (Caspase-3): 6730 nM (active)
- AC50 (Caspase-6): 219 nM (active)
- EC50 (Protein RecA): 19.1 nM (active)
- AC50 (INS1): 1920 nM (active)
- IC50 (Phospholipase A2): > 80000 nM (inactive)

SMILES: CCCCCCCCCCn1c2c(c(=N)c3c1CCC3)CCC2
- AC50 [1]: 2810 nM (active)
- EC50 (Protein RecA): 1830 nM (active)
